The values below are quoted from earlier work in patent US6284845A, “Low temperature cure carboxyl terminated polyesters” (McWhorter Technologies, priority 1999, dated 2001).

A value given as a limit tells only on which side of the number the result lay.

Series [1] deals with rabbit.
The subject of series [2] is rabbit. This is another data set of the same source.
In series [3] the test system is rat.
The test system of series [4] is guinea pig.

For `CC(O)CN(CC(C)O)C(=O)CCCCC(=O)N(CC(C)O)CC(C)O` (stereo not drawn) [Primid QM-1260, N,N,N',N'-Tetrakis (2-hydroxypropyl) adipamide], in series [1], the Primary eye irritation entry is “not irritating”. For the same compound, in series [2], the Primary skin irritation result is “not irritating”. The “Acute oral toxicity LD50” value in series [3] was above 2000 mg/kg.

As to `O=C(CCCCC(=O)N(CCO)CCO)N(CCO)CCO` [Primid XL-552, N,N,N',N'-Tetrakis (2-hydroxyethyl) adipamide], in series [4], the Primary skin irritation result is listed as “not irritating”. For the same compound, the Primary eye irritation entry in series [1] is “not irritating”. For the same compound, the “Acute oral toxicity LD50” value in series [3] is above 5000 mg/kg.
